US11000033B2, “Ketone or oxime compound, and herbicide” (NISSAN CHEMICAL CORPORATION, priority 2014, dated 2021)

What was measured:
Assay type in all cases: in vivo
Galium spurium [1] = assay: Test Example 5: herbicidal effect by foliage application, plastic box (symbol Q); details: 320 g/ha, 3 weeks after application
How it was run: (§1)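 Sowing in sterilized diluvial soil, 14 days' greenhouse growth at 25° C. to 30° C., then uniform small-sprayer foliar application of aqueous emulsion dilution; plants scored three weeks afterwards.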

Galium spurium [2] = assay: Test Example 4: herbicidal effect by soil treatment (symbol Q); details: application herbicide amount 320 g/ha
How it was run: (§2)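 Seeds were sown in sterilized diluvial soil, covered with about 1.5 cm of soil, and the soil surface was sprayed with a water-diluted emulsion of the compound at a predetermined rate. Plants grew in a greenhouse at 25° C. to 30° C.; effects were scored visually 3 weeks after application.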

Stellaria media [3] = assay: Test Example 5: herbicidal effect by foliage application, plastic box (symbol P); details: 320 g/ha, 3 weeks after application
How it was run: as §1

Amaranthus retroflexus = assay: Test Example 4: herbicidal effect by soil treatment (symbol N); details: application herbicide amount 320 g/ha
How it was run: as §2

Lolium multiflorum Lam. = assay: Test Example 4: herbicidal effect by soil treatment (symbol K); details: application herbicide amount 320 g/ha
How it was run: as §2

rapeseed [4] = assay: Test Example 4: effect on crop by soil treatment (symbol g); details: application herbicide amount 320 g/ha
How it was run: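 Grown at 25° C. to 30° C. in a greenhouse, the crops came from seed sown spot-wise in sterilized diluvial soil under roughly 1.5 cm of covering soil.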

Stellaria media [5] = assay: Test Example 4: herbicidal effect by soil treatment (symbol P); details: application herbicide amount 320 g/ha
How it was run: as §2

Setaria viridis [6] = assay: Test Example 4: herbicidal effect by soil treatment (symbol G); details: application herbicide amount 320 g/ha
How it was run: as §2

corn = assay: Test Example 4: effect on crop by soil treatment (symbol c); details: application herbicide amount 320 g/ha
How it was run: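 The test used sterilized diluvial soil. Seed was set down in spots and overlaid with about 1.5 cm of soil before growth in a greenhouse kept at 25° C. to 30° C.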

Leptochloa chinensis = assay: Test Example 3: herbicidal effect by foliage application, Wagner pot (symbol D); details: application herbicide amount 320 g/ha; for D (Leptochloa chinensis) herbicidal effect grade: Table 24
How it was run: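 Seeds sown in alluvial soil kept under 0.1–0.5 cm water, greenhouse 25–30 °C; 14 d growth. Leaves treated by small sprayer with water-diluted emulsion at a predetermined rate. Effect graded by set scale, 3 weeks.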

Setaria viridis [7] = assay: Test Example 5: herbicidal effect by foliage application, plastic box (symbol G); details: 320 g/ha, 3 weeks after application
How it was run: as §1

wheat = assay: Test Example 5: effect on crop by foliage application, plastic box (symbol e); details: 320 g/ha, 3 weeks after application
How it was run: (§3)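 A greenhouse held between 25° C. and 30° C. was used to grow plants sown spot-wise, beneath ~1.5 cm of soil, in boxes of sterilized diluvial soil.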

[8] = tested on: Echinochloa crus-galli var. crus-galli; assay: Test Example 5: herbicidal effect by foliage application, plastic box (symbol H); details: 320 g/ha, 3 weeks after application
How it was run: as §1

[9] = tested on: Echinochloa crus-galli var. crus-galli; assay: Test Example 4: herbicidal effect by soil treatment (symbol H); details: application herbicide amount 320 g/ha
How it was run: as §2

Alopecurus myosuroides = assay: Test Example 5: herbicidal effect by foliage application, plastic box (symbol J); details: 320 g/ha, 3 weeks after application
How it was run: as §1

rapeseed [10] = assay: Test Example 5: effect on crop by foliage application, plastic box (symbol g); details: 320 g/ha, 3 weeks after application
How it was run: as §3

Monochoria vaginalis = assay: Test Example 1: herbicidal activity, application before weed generation in submerged conditions (symbol C); details: application herbicide amount 320 g/ha
How it was run: (§4)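 Paddy pre-emergence test. Formulated emulsion, water-diluted to a predetermined rate, is applied to floodwater on sowing day; rice transplanted at 2.5 leaves. Effect read at 3 weeks on a 0–5 herbicidal-ratio scale.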

Scirpus juncoides = assay: Test Example 1: herbicidal activity, application before weed generation in submerged conditions (symbol B); details: application herbicide amount 320 g/ha
How it was run: as §4

Apera spica-venti = assay: Test Example 4: herbicidal effect by soil treatment (symbol L); details: application herbicide amount 320 g/ha
How it was run: as §2

SMILES	Q: Galium spurium, herbicidal effect grade (Galium spurium [1])	Herbicidal effect grade, Q: Galium spurium (Galium spurium [2])	P: Stellaria media, herbicidal effect grade (Stellaria media [3])	Herbicidal effect grade, N: Amaranthus retroflexus (Amaranthus retroflexus)	Herbicidal effect grade, K: Lolium multiflorum Lam. (Lolium multiflorum Lam.)	Effect on crop grade, g: rapeseed (rapeseed [4])	Herbicidal effect grade, P: Stellaria media (Stellaria media [5])	Herbicidal effect grade, G: Setaria viridis (Setaria viridis [6])	Effect on crop grade, c: corn (corn)	D (Leptochloa chinensis) herbicidal effect grade (Leptochloa chinensis)	G: Setaria viridis, herbicidal effect grade (Setaria viridis [7])	e: wheat, effect on crop grade (wheat)	H: Echinochloa crus-galli var. crus-galli, herbicidal effect grade [8]	Herbicidal effect grade, H: Echinochloa crus-galli var. crus-galli [9]	J: Alopecurus myosuroides, herbicidal effect grade (Alopecurus myosuroides)	g: rapeseed, effect on crop grade (rapeseed [10])	Herbicidal effect grade, C: Monochoria vaginalis (Monochoria vaginalis)	Herbicidal effect grade, B: Scirpus juncoides (Scirpus juncoides)	other results
CC(CC1CC(O)=C(c2c(C)cc(Br)cc2C)C1=O)=NOCC(=O)N(C)C (mixture of isomers) [9-029]	0 (Herbicidal ratio of 5% or lower (almost no effect))	0 (Herbicidal ratio of 5% or lower (almost no effect))	0 (Herbicidal ratio of 5% or lower (almost no effect))	0 (Herbicidal ratio of 5% or lower (almost no effect))	4 (Herbicidal ratio of 70% or higher and lower than 90%)	0 (Herbicidal ratio of 5% or lower (almost no effect))	0 (Herbicidal ratio of 5% or lower (almost no effect))	4 (Herbicidal ratio of 70% or higher and lower than 90%)	0 (Herbicidal ratio of 5% or lower (almost no effect))	4 (Herbicidal ratio of 70% or higher and lower than 90%)	3 (Herbicidal ratio of 40% or higher and lower than 70%)	4 (Herbicidal ratio of 70% or higher and lower than 90%)	3 (Herbicidal ratio of 40% or higher and lower than 70%)	3 (Herbicidal ratio of 40% or higher and lower than 70%)	1 (Herbicidal ratio of 5% or higher and lower than 20%)	4 (Herbicidal ratio of 70% or higher and lower than 90%)			
CC(CC1CC(O)=C(c2c(C)cc(C)cc2C)C1=O)=NOCC1CC1 (stereo not shown) [1-024]	3 (Herbicidal ratio of 40% or higher and lower than 70%)		3 (Herbicidal ratio of 40% or higher and lower than 70%)								5 (Herbicidal ratio of 90% or more (almost completely withered))	5 (Herbicidal ratio of 90% or more (almost completely withered))	5 (Herbicidal ratio of 90% or more (almost completely withered))		5 (Herbicidal ratio of 90% or more (almost completely withered))	4 (Herbicidal ratio of 70% or higher and lower than 90%)	2 (Herbicidal ratio of 20% or higher and lower than 40%)	5 (Herbicidal ratio of 90% or more (almost completely withered))	Q (Galium spurium) herbicidal effect grade (Galium spurium [2]): 0 (Herbicidal ratio of 5% or lower (almost no effect)); N (Amaranthus retroflexus) herbicidal effect grade (Amaranthus retroflexus): 4 (Herbicidal ratio of 70% or higher and lower than 90%); K (Lolium multiflorum Lam.) herbicidal effect grade (Lolium multiflorum Lam.): 5 (Herbicidal ratio of 90% or more (almost completely withered)); g (rapeseed) effect on crop grade (rapeseed [4]): 3 (Herbicidal ratio of 40% or higher and lower than 70%); L (Apera spica-venti) herbicidal effect grade (Apera spica-venti): 5 (Herbicidal ratio of 90% or more (almost completely withered)); G (Setaria viridis) herbicidal effect grade (Setaria viridis [6]): 3 (Herbicidal ratio of 40% or higher and lower than 70%); c (corn) effect on crop grade (corn): 1 (Herbicidal ratio of 5% or higher and lower than 20%); herbicidal effect on D (Leptochloa chinensis), grade 0-5 (Leptochloa chinensis): 5 (Herbicidal ratio of 90% or more (almost completely withered)); H (Echinochloa crus-galli var. crus-galli) herbicidal effect grade [9]: 5 (Herbicidal ratio of 90% or more (almost completely withered))
CON=C(CC1CC(O)=C(c2c(C)cc(-n3cc(Cl)cn3)cc2C)C1=O)C(C)C (stereo not shown) [9-004]		0 (Herbicidal ratio of 5% or lower (almost no effect))	2 (Herbicidal ratio of 20% or higher and lower than 40%)	0 (Herbicidal ratio of 5% or lower (almost no effect))	4 (Herbicidal ratio of 70% or higher and lower than 90%)	0 (Herbicidal ratio of 5% or lower (almost no effect))	0 (Herbicidal ratio of 5% or lower (almost no effect))	5 (Herbicidal ratio of 90% or more (almost completely withered))	0 (Herbicidal ratio of 5% or lower (almost no effect))	5 (Herbicidal ratio of 90% or more (almost completely withered))	5 (Herbicidal ratio of 90% or more (almost completely withered))	3 (Herbicidal ratio of 40% or higher and lower than 70%)	5 (Herbicidal ratio of 90% or more (almost completely withered))	5 (Herbicidal ratio of 90% or more (almost completely withered))	5 (Herbicidal ratio of 90% or more (almost completely withered))	3 (Herbicidal ratio of 40% or higher and lower than 70%)	0 (Herbicidal ratio of 5% or lower (almost no effect))	2 (Herbicidal ratio of 20% or higher and lower than 40%)	Herbicidal effect grade, L: Apera spica-venti (Apera spica-venti): 5 (Herbicidal ratio of 90% or more (almost completely withered))
